Data on 1 compound can be found in paper PMC8072159, “5-Bis-(2,6-difluoro-benzylidene) Cyclopentanone Acts as a Selective 11β-Hydroxysteroid Dehydrogenase one Inhibitor to Treat Diet-Induced Nonalcoholic Fatty Liver Disease in Mice” (Frontiers in Pharmacology, 2021).

Each structure is given as a SMILES string.

The target of experiment [1] is T1, 11β-HSD1 (Rattus norvegicus, UniProt P16232).
T1 construct: from tissue; host or cells: liver microsomes of male Sprague Dawley rats, prepared in house
In words: 11β-HSD1 activity in intact rat Leydig cells. Type of experiment: cell-based. The settings on record: read-out: IC50 rat Leydig cell 11β-HSD1. As to the method: Isolation of Rat Adult Leydig Cells
Leydig cells were isolated as previously described ([Ge et al., 2006]). Briefly, after a week of adjustment, eighteen 35-day-old Sprague Dawley rats were killed by asphyxiation with carbon dioxide (CO2). The testis was removed. The testis was perfused with collagenase solution through the testicular artery. The testis was digested with collagenase and DNase for 15 min, and the digested cells were filtered with nylon mesh, and the cells were separated under a Percoll gradient. The cells with density of 1.070–1.088 g/ml were collected and washed. The purity of the Leydig cell fraction was evaluated by histochemical staining of 3β-hydroxysteroid dehydrogenase using 0.4 mM etiocholanolone as a steroid substrate and 2 mM NAD + as a cofactor and tetranitroblue tetrazolium as the H^+ acceptor as previously described ([Payne et al., 1980]). More than 95% of Leydig cells are strongly stained. […] In brief, an aliquot of 10^5 cells/ml in a 0.5 ml test tube was mixed with 0.1 ml of 0.4% trypan blue at room temperature for 5 min and the cells were then loaded into a hemocytometer for counting, and the numbers of non-viable (staining) and viable (not stained) cells were counted. Viability was calculated as the percentage of viable cells divided by the total number of cells, and the viability of Leydig cells (intact Leydig cells) was over 99%. […]

Experiment [2] addresses T1, 11β-HSD1. In words: 11β-HSD1 reductive activity in rat liver microsomes. The class given is biochemical. How it is done: (§1) Preparation of Rat and Mouse Liver and Kidney Microsomes
(§2) The liver and kidney microsomes were prepared as previously described ([Guo et al., 2012]). Briefly, the tissue was homogenized in […] phosphate buffered saline (PBS) containing 0.25 M sucrose, and the nuclei and large cell debris were removed by centrifugation at 1500 g for 10 min. The supernatant was transferred to a tube and the mitochondria were removed by centrifugation at 10, 000 × g for 30 min. The supernatant was transferred to an ultracentrifuge tube and centrifuged twice at 105,000 × g, the resulting microsomal precipitate was collected. The protein content was measured by the BCA kit according to the manufacturer’s instruction. The protein concentration was adjusted to 20 mg/ml. These proteins were used to measure 11β-HSD1 and 11β-HSD2 activities. […]
(§3) The reductive activity of 11β-HSD1 in rat, mouse, and human liver microsomes was measured as previously described ([Ge et al., 2005]). […] 11β-HSD1 activity was measured using 11-DHC or cortisone as a substrate. […] The inhibitory ability of the chemical relative to the control (DMSO solvent) was measured. […] The steroids in chloroform and methanol (90:10, v/v) were chromatographically separated on a thin layer plate, and radioactivity was measured using a scanning radiometer (System AR2000, Bioscan Inc., Washington, DC, United States). […]
On the technique in general: Liver microsomes are vesicles of endoplasmic reticulum, rich in cytochrome P450 enzymes.

The target in experiment [3] is T2, 11β-HSD1 (Mus musculus, UniProt P50172).
T2 construct: from tissue; host or cells: mouse liver microsomes prepared in house (probably from Kunming mice)
The experiment in a line: 11β-HSD1 reductive activity in mouse liver microsomes. Type of experiment: biochemical. As to the method: as §1, §2, §3

T1 sequence (P16232 whole entry): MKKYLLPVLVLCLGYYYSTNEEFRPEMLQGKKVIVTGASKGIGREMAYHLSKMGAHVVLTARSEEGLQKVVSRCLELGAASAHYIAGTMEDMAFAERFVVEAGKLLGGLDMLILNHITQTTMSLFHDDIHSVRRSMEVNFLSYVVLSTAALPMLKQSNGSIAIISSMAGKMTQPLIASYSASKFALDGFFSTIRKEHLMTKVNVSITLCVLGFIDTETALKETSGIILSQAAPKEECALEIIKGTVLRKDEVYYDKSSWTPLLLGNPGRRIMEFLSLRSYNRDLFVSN
T2 sequence (P50172 whole entry): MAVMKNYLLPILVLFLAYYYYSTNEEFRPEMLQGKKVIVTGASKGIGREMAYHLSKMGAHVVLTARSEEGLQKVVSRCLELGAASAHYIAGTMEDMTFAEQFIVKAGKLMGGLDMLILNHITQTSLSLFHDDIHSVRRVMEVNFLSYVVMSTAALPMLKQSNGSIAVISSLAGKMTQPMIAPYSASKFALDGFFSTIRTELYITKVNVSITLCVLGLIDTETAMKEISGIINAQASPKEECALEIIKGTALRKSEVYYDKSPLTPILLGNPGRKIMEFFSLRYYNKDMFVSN

Usually IC50 stands for the concentration that gives 50% inhibition. What is called inhibition is the percentage by which the read-out fell short of the control. `O=C1/C(=C/c2c(F)cccc2F)CC/C1=C\c1c(F)cccc1F` [WZS08, (2E,5E)-2,5-bis(2,6-difluorobenzylidene) Cyclopentanone]: the IC50 in experiment [1] was 170 ± 3.8 nM; in experiment [2] (rat liver microsomes, 25 nM 11DHC, NADPH) it was 378 nM; in experiment [3] (mouse liver microsomes, 25 nM 11DHC, NADPH) it was 244 nM. In addition, the inhibition at 100 µM is 93.9 ± 0.42% in experiment [2] (100 μM, initial screening, read-out: 11β-HSD1 inhibition, rat enzyme) and 94.5 ± 0.97% in experiment [3] (100 μM, initial screening, read-out: 11β-HSD1 inhibition, mouse enzyme).
